Biological target: Metabotropic glutamate receptor 7 (Rattus norvegicus, UniProt P35400)
Assay: Positive allosteric modulation of rat mGlu7 receptor expressed in HEK293 cells co-expressing Gai5 assessed as potentiation of L-AP4-induced calcium mobilization preincubated for 140 secs and treated with EC20 L-AP4 for 125 secs and followed by subsequent addition of EC80 L-AP4 by Fluo-4-AM dye based fluorescence assay

Chain of Metabotropic glutamate receptor 7 (P35400 whole entry): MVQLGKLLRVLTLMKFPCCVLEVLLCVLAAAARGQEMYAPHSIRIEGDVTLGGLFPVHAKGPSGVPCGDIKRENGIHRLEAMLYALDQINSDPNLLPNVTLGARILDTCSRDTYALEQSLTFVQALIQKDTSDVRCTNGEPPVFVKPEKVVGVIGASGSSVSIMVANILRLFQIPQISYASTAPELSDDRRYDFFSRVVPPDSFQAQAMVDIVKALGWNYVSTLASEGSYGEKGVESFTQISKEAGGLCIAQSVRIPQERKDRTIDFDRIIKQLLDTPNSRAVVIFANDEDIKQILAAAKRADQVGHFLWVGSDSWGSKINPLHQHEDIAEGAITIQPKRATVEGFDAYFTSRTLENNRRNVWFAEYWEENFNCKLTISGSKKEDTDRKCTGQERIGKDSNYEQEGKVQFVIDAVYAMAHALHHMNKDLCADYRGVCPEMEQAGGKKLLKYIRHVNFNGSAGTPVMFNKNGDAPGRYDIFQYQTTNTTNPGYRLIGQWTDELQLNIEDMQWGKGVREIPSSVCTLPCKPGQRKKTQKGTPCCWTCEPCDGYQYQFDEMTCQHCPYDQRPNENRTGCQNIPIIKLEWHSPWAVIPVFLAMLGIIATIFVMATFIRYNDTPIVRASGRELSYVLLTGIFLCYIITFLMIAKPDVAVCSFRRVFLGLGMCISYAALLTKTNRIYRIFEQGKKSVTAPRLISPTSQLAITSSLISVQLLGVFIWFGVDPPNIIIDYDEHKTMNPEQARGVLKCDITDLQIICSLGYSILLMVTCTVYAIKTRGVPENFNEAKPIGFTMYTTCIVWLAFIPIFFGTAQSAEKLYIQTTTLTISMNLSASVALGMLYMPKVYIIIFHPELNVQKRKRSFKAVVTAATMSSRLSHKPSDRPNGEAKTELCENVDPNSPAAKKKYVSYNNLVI

EC50: 1.54 µM
SMILES: N#Cc1cnc2c(OC3CCOC3)cccc2c1N1CCN(c2ccccc2F)CC1 (stereo unspecified)

Reference: BindingDB's records for doi:10.1021/acsmedchemlett.0c00432 (Vanderbilt University, 2020)
